We go through 10 molecules from ChEMBL document CHEMBL2384918, “Identification of Selective Nanomolar Inhibitors of the Human Neuraminidase, NEU4” (ACS Med Chem Lett, 2013).

Each structure is given as a SMILES string.

One assay addresses T1, Sialidase-3 (Homo sapiens, UniProt Q9UQ49).
T1 sequence (Q9UQ49 whole entry): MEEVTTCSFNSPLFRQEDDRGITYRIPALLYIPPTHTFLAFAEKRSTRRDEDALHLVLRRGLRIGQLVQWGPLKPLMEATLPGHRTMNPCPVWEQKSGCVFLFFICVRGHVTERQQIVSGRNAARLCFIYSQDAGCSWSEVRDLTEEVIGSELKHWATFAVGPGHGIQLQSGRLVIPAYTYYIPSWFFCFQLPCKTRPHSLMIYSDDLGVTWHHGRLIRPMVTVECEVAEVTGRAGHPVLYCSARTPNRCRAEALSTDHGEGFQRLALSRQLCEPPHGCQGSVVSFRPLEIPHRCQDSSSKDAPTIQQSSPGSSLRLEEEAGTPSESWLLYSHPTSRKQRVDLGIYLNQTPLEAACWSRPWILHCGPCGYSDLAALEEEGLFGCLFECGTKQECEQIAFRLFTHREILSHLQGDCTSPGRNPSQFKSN
Put plainly: Inhibition of human NEU3 using 4-MU-NANA as substrate preincubated for 15 mins before substrate addition measured after 30 mins by fluorescence plate reader analysis.

For the next assay, the target named is Sialidase-1 (Homo sapiens, UniProt Q99519). Put plainly: Inhibition of human NEU1 using 4-MU-NANA as substrate preincubated for 15 mins before substrate addition measured after 30 mins by fluorescence plate reader analysis.
Assay [1] deals with T2, Sialidase-4 (Homo sapiens, UniProt Q8WWR8).
T2 sequence (Q8WWR8 whole entry): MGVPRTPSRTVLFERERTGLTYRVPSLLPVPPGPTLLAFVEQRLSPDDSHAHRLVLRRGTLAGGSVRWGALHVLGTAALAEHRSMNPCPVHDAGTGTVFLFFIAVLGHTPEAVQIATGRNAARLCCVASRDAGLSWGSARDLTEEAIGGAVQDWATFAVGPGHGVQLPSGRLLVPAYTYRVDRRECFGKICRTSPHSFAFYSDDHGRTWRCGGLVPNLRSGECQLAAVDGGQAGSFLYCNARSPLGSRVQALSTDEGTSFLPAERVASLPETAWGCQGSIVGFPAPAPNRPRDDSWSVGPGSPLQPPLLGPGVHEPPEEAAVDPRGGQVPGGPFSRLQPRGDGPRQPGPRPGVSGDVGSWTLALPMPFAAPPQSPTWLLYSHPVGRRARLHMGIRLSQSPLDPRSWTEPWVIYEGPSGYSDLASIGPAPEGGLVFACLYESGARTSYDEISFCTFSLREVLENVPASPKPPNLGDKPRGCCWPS
Put plainly: Inhibition of human NEU4 using 4-MU-NANA as substrate preincubated for 15 mins before substrate addition measured after 30 mins by fluorescence plate reader analysis.

In assay [2] the target is T2, Sialidase-4. Put plainly: Inhibition of human NEU4 using 4-MU-NANA as substrate measured every 30 seconds for 60 mins by fluorescence plate reader analysis.

By IC50 is commonly meant the concentration that gives 50% inhibition. Read a high IC50 as weaker potency. Take `[N-]=[N+]=NCC(=O)N[C@H]1[C@H]([C@H](O)[C@H](O)CO)OC(C(=O)O)=C[C@@H]1O`: the IC50 on Sialidase-3 was determined as 4.7 µM; against Sialidase-1, 29 µM; at Sialidase-4 [1], 4.5 µM.
On to `CCOc1cn(C[C@@H](O)[C@@H](O)[C@@H]2OC(C(=O)O)=C[C@H](O)[C@H]2NC(C)=O)nn1`, for which the IC50 turned out to be 90 µM against Sialidase-3, 170 µM on Sialidase-1 and 3.6 µM against Sialidase-4 [1].
The like results for `CC(=O)N[C@H]1[C@H]([C@H](O)[C@H](O)Cn2cc(COc3ccccc3)nn2)OC(C(=O)O)=C[C@@H]1O` were, in that order, 5.5 µM, more than 1000 µM and 1.7 µM.
The like results for `CC(=O)N[C@H]1[C@H]([C@H](O)[C@H](O)CN=[N+]=[N-])OC(C(=O)O)=C[C@@H]1O` were, in that order, 19.7 µM, 620 µM and 60 µM.
Consider `CC(=O)N[C@H]1[C@H]([C@H](O)[C@H](O)Cn2cc(CO)nn2)OC(C(=O)O)=C[C@@H]1O`, for which the IC50 on Sialidase-3 is 80 µM; against Sialidase-1, more than 1000 µM.
As for `CC(=O)N[C@H]1[C@H]([C@H](O)[C@H](O)Cn2cc(C(C)(C)O)nn2)OC(C(=O)O)=C[C@@H]1O`, the IC50 on Sialidase-1 is more than 1000 µM; against Sialidase-4 [1] it was 4 µM.
As to `CC(=O)N[C@H]1[C@H]([C@H](O)[C@H](O)Cn2cc(CCCO)nn2)OC(C(=O)O)=C[C@@H]1O`, the IC50 on Sialidase-3 was 39 µM; against Sialidase-1, 660 µM; against Sialidase-4 [1] it was 2.1 µM.
With `O=C(Cn1cc(-c2ccccc2)nn1)N[C@H]1[C@H]([C@H](O)[C@H](O)CO)OC(C(=O)O)=C[C@@H]1O`, the half-inhibitory concentration (IC50) was more than 1000 µM on Sialidase-3, more than 1000 µM against Sialidase-1 and 250 µM against Sialidase-4 [1].
What is called Ki is the equilibrium dissociation constant of an inhibitor or competing ligand from its target. Turning to `CC(=O)N[C@H]1[C@H]([C@H](O)[C@H](O)Cn2cc(CCO)nn2)OC(C(=O)O)=C[C@@H]1O`, the results for the IC50 against Sialidase-3, at Sialidase-1 and against Sialidase-4 [1] were 38 µM, more than 1000 µM and 0.81 µM, respectively. The molecule also came in with a Ki at Sialidase-4 [2] of 0.06 µM.
In the case of `CC(=O)N[C@H]1[C@H]([C@H](O)[C@H](O)Cn2cc(-c3ccccc3)nn2)OC(C(=O)O)=C[C@@H]1O`, the IC50 at Sialidase-3 is 4.6 µM; at Sialidase-1, more than 200 µM; on Sialidase-4 [1], 2.3 µM.
